Assay results as given in PMC7887271, “Fast acting allosteric phosphofructokinase inhibitors block trypanosome glycolysis and cure acute African trypanosomiasis in mice” (Nature Communications, 2021).
Where “and” joins values, the source holds several entries; their conditions need not be identical. Identical values can stand only once. Entries after “also recorded” stand apart in the source; their conditions may differ.

How the values were obtained:
[1] = Mouse brain tissue binding; format: in vitro ADME; conditions: read-out: Mouse brain tissue binding fu (%)
T. b. brucei Lister 427 = test: Mouse model of stage 1 HAT; format: in vivo, T. b. brucei in female CD-1 mice
Experimental: T. b. brucei Lister 427 infection is cured by 1-day dosing. […] These parasites have a doubling time of ~6 h and infection with 1 × 10^5 parasites usually requires euthanasia of mice within 4–5 days of infection in the absence of drug treatment. Drug efficacy is determined by taking regular blood samples from infected mice and checking microscopically for parasitaemia. In this model of acute infection a single surviving parasite should proliferate to reach detectable levels in ~5 days and a 30-day period of no parasite detection is considered as cure.
For the mouse model of stage 1 HAT T. b. brucei Lister 427 parasites (1 × 10^5) were injected into a single donor female CD-1 mouse (University of Edinburgh; 6–8 weeks old) intraperitoneally in D-PBS containing 10 mM glucose. Parasites for subsequent stage 1 HAT infection were obtained from whole blood via cardiac puncture, under gaseous isoflurane anaesthesia. Parasites (1 × 10^3) harvested from the donor mouse were then injected into the peritoneum of female CD-1 mice (University of Edinburgh; 6–8 weeks old) in D-PBS containing 10 mM glucose. One day after infection, animals were either left untreated (n = 3) or dosed orally by gavage (n = 5) with CTCB compound in Cremophor EL: EtOH: D-PBS (30:10:60 v/v; Supplementary Methods 6.3).
T. b. brucei Lister 427 parasites (1 x 10^5) were injected into a single donor female CD-1 mouse (University of Edinburgh; 6-8 weeks old) intraperitoneally in D-PBS containing 10 mM glucose. Parasites for subsequent Stage 1 HAT infection were obtained from whole blood via cardiac puncture, under gaseous isoflurane anaesthesia as described above. Parasites (1 x 10^3) harvested from the donor mouse were then injected into the peritoneum of female CD-1 mice (University of Edinburgh; 6-8 weeks old) in D-PBS containing 10mM glucose. One day after infection, animals were either left untreated (n=3) or dosed orally by gavage (n=5) with CTCB compound in Cremophor EL: EtOH : D-PBS (30:10:60 v/v). The veterinary trypanocidal drug pentamidine isethionate (2.5 mg/kg for 4 consecutive days after infection) was administered intraperitoneally as control (n=3) for parasite elimination. Mice were monitored daily for parasitaemia day 1 post-infection onwards. Trypanosomes were quantified in blood samples from the tail vein by microscopy as previously described (12). Animals were sacrificed on the day that parasites were first detected in blood samples. (Supplementary Figure 11)

T. b. brucei GVR35-VSL2 = test: Mouse model of stage 1 and stage 2 HAT, bioluminescence imaging; format: in vivo, T. b. brucei in female CD-1 mice; conditions: for Side head bioluminescence - Total Flux: D23, individual mice, Supp_Fig13; for parasitaemia in brains of saline-perfused mice: stage 2, day 23, ex vivo; for bioluminescence signal in the body, stage 2 treatment: treatment from day 21
From the text: An alternative mouse model for stage 1 (acute) and stage 2 (CNS-involved) HAT has been developed using a transgenic cell line derived from the pleiomorphic T. b. brucei GVR35 that expresses red-shifted firefly luciferase[17],[18]. […] T. b. brucei GVR35-infected mice present stage 1 disease by day 7 post infection with progression to stage 2 by day 21. By injecting the mouse with luciferin, the level of parasitaemia can be estimated in real time by monitoring the luminescence. Unlike monomorphic Lister 427 T. b. brucei, the pleiomorphic GVR35 T. b. brucei is controlled by a quorum-sensing mechanism resulting in the significant increase in survival time in mice and lower blood parasitaemia that occurs in waves. This extended survival time is also accompanied by parasite dissemination to multiple tissues and organs, including the skin, adipose tissue, lung and brain, with parasite loads increasing over time[17],[19].
For the mouse model of stage 1 and stage 2 HAT T. b. brucei GVR35-VSL2 parasites (3 × 10^4) were injected into a single donor female CD-1 mouse intraperitoneally. Once infection was established, starting on day 7 for stage 1 studies and day 21 for stage 2 studies, mice were either left untreated (n = 3) or dosed by oral gavage with CTCB compound in Cremophor EL: EtOH: D-PBS (30:10:60 v/v; n = 6). Progression of T. b. brucei GVR35-VSL2 infection was monitored primarily by in vivo bioluminescence imaging of infected mice using an IVIS Spectrum (PerkinElmer). For stage 1 studies, imaging of infected mice was performed before treatment on day 7 post infection and on days following the treatment (days 8, 9 and 14). Imaging on groups of three mice was performed 12 min after intraperitoneal injection of 150 mg kg^−1 D-luciferin (Promega) in PBS. For stage 2 studies, mice were imaged prior to treatment on day 21, and subsequently on days 22 and 23. On day 23, 24 h after the final dose, mice were sacrificed by cervical dislocation and perfused with PBS containing 15 g L^−1 glucose to allow ex vivo imaging of whole brains (Supplementary Figs. 12 and 13).
Female CD-1 (Charles River UK; 6-8 weeks old) mice were infected with 3 × 10^4 T. b. brucei GVR35-VSL2 bloodstream form parasites intraperitoneally. T. b. brucei GVR35-VSL2 expresses red-shifted luciferase and provides a better signal for imaging (13). Once infection was established, starting on day 7 for Stage 1 studies and day 21 for Stage 2 studies, mice were either left untreated (n=3) or dosed by oral gavage with CTCB compound in Cremophor EL: EtOH : D-PBS (30:10:60 v/v) (n = 6). Additional groups of mice (n=3) that received either a single intraperitoneal dose of diminazene aceturate (Sigma-Aldrich) at 40 mg/kg in sterile water or 0.1 ml melarsoprol gel (14) containing 3.6 mg melarsoprol, applied topically for 3 consecutive days, served as controls for Stage 1 and Stage 2 treatment studies, respectively.
Progression of T. b. brucei GVR35-VSL2 infection was monitored primarily by in vivo bioluminescence imaging of infected mice using an IVIS Spectrum (PerkinElmer) as described previously (5). For stage 1 studies, imaging of infected mice was performed before treatment on day 7 post-infection and in days following the treatment (days 8, 9 and 14). Imaging on groups of three mice was performed 12 minutes after intraperitoneal injection of 150 mg/kg D-luciferin (Promega) in PBS. For stage 2 studies, mice were imaged prior to treatment on day 21 and subsequently on days 22 and 23. On day 23, 24 hours after the final dose, mice were sacrificed by cervical dislocation and perfused with phosphate-buffered saline containing 15 g.L^−1 glucose to allow ex vivo imaging of whole brains. To this end, 100 μl D-luciferin was administered onto the brain surface and imaging performed immediately thereafter.

[2] = three oral 50 mg kg^−1 doses 2 h apart daily over 2 days, n = 5
[3] = treatment during stage 1 (day 7)

Compound | fraction unbound [1] | outcome of treatment (T. b. brucei Lister 427; [2]) | Side head bioluminescence - Total Flux (T. b. brucei GVR35-VSL2) | parasitaemia in brains of saline-perfused mice (T. b. brucei GVR35-VSL2) | bioluminescence signal in the body, stage 2 treatment (T. b. brucei GVR35-VSL2) | delay of onset of parasitaemia (T. b. brucei Lister 427; single oral doses of 50 mg kg^−1 over four consecutive days) | outcome of treatment (T. b. brucei Lister 427; three oral doses of 100 mg kg^−1 2 h apart on a single day, n = 5) | infected mice with complete cure (T. b. brucei Lister 427; three oral doses of 100 mg kg^−1 at 2 h intervals on 1 day, cure = no parasitaemia for >30 days) | outcome of treatment (T. b. brucei Lister 427; two daily oral doses at 25 mg/kg delivered 4 hours apart, n=5) | detection of parasites in blood delayed to (T. b. brucei GVR35-VSL2; [3]) [day post infection] | effect on parasitaemia, stage 1 treatment (T. b. brucei GVR35-VSL2; [3])
CN(C)CCn1ccc2c(ccn2Cc2ccc(Cl)c(Br)c2)c1=O [CTCB-470, 1-[(3-Bromo-4-chlorophenyl)methyl]-5-[2-(dimethylamino)ethyl] pyrrolo[3,2-c]pyridin-4-one] | 0.006 | either complete clearance or a significant increase in survival | 1.100E+07 p/s and 7.724E+06 p/s and 5.606E+06 p/s and 1.306E+06 p/s and 2.050E+07 p/s and 2.702E+06 p/s | very clear reduction in parasitaemia | fast and significant signal reduction in the body | – | – | – | – | – | –
CN(C)CCn1ccc2c(ccn2Cc2ccc(Cl)c(Cl)c2)c1=O [CTCB-405, 1-[(3,4-Dichlorophenyl)methyl]-5-[2-(dimethylamino)ethyl] pyrrolo[3,2-c]pyridin-4-one] | 0.008 | parasite clearance; also recorded: complete cure; also recorded: either complete clearance or a significant increase in survival | – | – | – | up to 12 days | parasites are undetectable; also recorded: no recurrence of parasitaemia 30 days post infection | 5/5 | prolongs survival but does not improve efficacy | 14 | reduced parasitaemia in the body and blood of mice
CN(C)CCn1ccc2c(ccn2Cc2ccc(F)c(Br)c2)c1=O [CTCB-508, 1-[(3-Bromo-4-fluorophenyl)methyl]-5-[2-(dimethylamino)ethyl] pyrrolo[3,2-c]pyridin-4-one] | 0.017 | either complete clearance or a significant increase in survival | 7.338E+06 p/s and 1.920E+06 p/s and 5.353E+06 p/s and 4.553E+06 p/s and 1.258E+07 p/s and 2.035E+07 p/s | very clear reduction in parasitaemia | fast and significant signal reduction in the body | – | – | – | – | – | –
